Laboratory results taken from PubChem BioAssay AID588530 (Broad Institute, 2011).
Active and inactive are the calls of the source.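 The calls were made as follows: active = Alamar Blue signal falls with dose, AC50 no more than twice the top valid dose; inconclusive = flat curve near half-strength inhibition, or poor fit; inactive = the rest.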

Experiments:
[1] = antifungal potency against resistant Candida albicans – CaCi-17 isolate, Alamar Blue, cherry-pick retest, confirmation (AID 588530); settings: C. albicans CaCi-17 growth, Alamar Blue fluorescence, 48 h; at 26 µM (top of the series)
[2] = system: C. albicans CaCi-17 growth, Alamar Blue fluorescence, 48 h; assay: as above

| Compound | activity change, negative = inhibition [1] | AC50 [2] |
| --- | --- | --- |
| O=[N+]([O-])c1ccc(O)c(/C=N/Nc2ccc(Cl)nn2)c1 | -23.4% (inactive) | – |
| CCN(CC)S(=O)(=O)c1cc(OC)ccc1N=Nc1ccc(O)c2ncccc12 | – | 15.3 µM |
| Oc1c(C(Nc2nc3ccccc3s2)c2ccco2)ccc2cccnc12 (centres undefined) | – | 3.97 µM |
| Oc1ccc(N=Nc2ccc3c(c2)OCCO3)c2cccnc12 | – | 10.8 µM |
| CCOC(=O)N1C(=O)C2(CCCCC2)N(c2ccc(C)cc2)C1=S | – | 1.3 µM |
| Oc1c(CN2CCN(c3ccccc3)CC2)cc(Br)c2cccnc12 | – | > 52 µM (inactive) |
| O=Nc1c(-c2cccc([N+](=O)[O-])c2)nc2ncccn12 | – | 4.77 µM |
| Cc1cc(NC(c2ccc(Cl)cc2)c2ccc3cccnc3c2O)no1 (centres undefined) | – | 2.49 µM |
| C/C(=N\NC(=O)c1cc2ccccc2cc1O)c1ccccn1 | – | 5.02 µM |
| COc1ccc(C)cc1N=Nc1ccc(O)c2ncccc12 | – | 2.99 µM |
| O=C(N/N=C/c1cc2c3c(c1O)CCCN3CCC2)c1ccccc1O | – | 4.28 µM |
| O=C(Oc1c(Cl)cc(Cl)c2cccnc12)c1ccco1 | – | 1.71 µM |
| COc1cccc(N=Nc2ccc3cccnc3c2O)c1 | – | 5.37 µM |
| O=Cc1ccc(O)c2ncccc12 | – | 13.7 µM |
| Oc1c(CN2CCN(c3ccc(F)cc3)CC2)cc(Cl)c2cccnc12 | – | 7.42 µM |
| C(C#CCCCCCCCCC[n+]1ccccc1)#CCCCCCCCCC[n+]1ccccc1 | – | 1.52 µM |
| COc1cccc(/C=N/Nc2ncnc3scc(-c4ccccc4)c23)c1O | – | 12.5 µM |

| Compound | activity change, negative = inhibition [1] | AC50 [2] |
| --- | --- | --- |
| Cc1ccc(C(=O)c2coc3c2C(=O)C(=O)c2ccccc2-3)cc1 | 7.03% (inactive) | – |
| Oc1c(C(Nc2nccs2)c2ccc(C(F)(F)F)cc2)ccc2cccnc12 (centres undefined) | – | 4.11 µM |
| CN1CCN(C(c2ccc(C(F)(F)F)cc2)c2ccc3cccnc3c2O)CC1 (centres undefined) | – | 8.86 µM |
| CCOc1ccc(N=Nc2ccc(O)c3ncccc23)cc1 | – | 11.6 µM |
| Oc1c(C(c2ccc(Cl)cc2)N2CCCC2)cc(Cl)c2cccnc12 (centres undefined) | – | 7.68 µM |
| O=C(Oc1c(Cl)cc(Cl)c2cccnc12)c1cccs1 | – | 3.29 µM |
| O=c1ccc(N=Nc2ccccc2)ccc1O | – | 4.73 µM |
| CCN1/C(=C/C=C/c2oc3ccc(-c4ccccc4)cc3[n+]2CC)Oc2ccc(-c3ccccc3)cc21 | – | 2.43 µM |
| COc1cccc(N=Nc2ccc(O)c3ncccc23)c1 | – | 3.91 µM |
| CCCCCCC[n+]1ccc(-c2cc[n+](CCCCCCC)cc2)cc1 | – | 13.4 µM |
| CCCCC(=O)NC(c1ccco1)c1cc(Cl)c2cccnc2c1O (centres undefined) | – | 24.9 µM |
| O=C(N/N=C/c1c(O)ccc2ccccc12)c1cccc(C(F)(F)F)c1 | – | > 52 µM (inactive) |
| Oc1ccc(N=Nc2ccc3c(c2)OCCO3)c2ncccc12 | – | > 52 µM (inactive) |
| O=[N+]([O-])c1cc(CN2CCN(c3ccccc3)CC2)c(O)c2ncccc12 | – | 10.6 µM |
| CCCCC(=O)NC(c1ccc(N(CC)CC)cc1)c1ccc2cccnc2c1O (centres undefined) | – | 3.73 µM |
| C=CCNC(=S)N/N=C(\C)c1ccccn1 | – | 8.96 µM |
| CN1CCN(C(c2ccc(C(F)(F)F)cc2)c2cc(Cl)c3cccnc3c2O)CC1 (centres undefined) | – | 6.34 µM |
